Test results reported in patent publication US6368852B1, “Peptide capable of inducing immune response to human gastric cancer and agent for preventing or treating human gastric cancer, containing the peptide” (Ajinomoto Co., Inc., priority 1995, dated 2002).
Where no end group is shown, it is not given here.

Experiments:
[1] = tested on: Tc-HST-2 cells with HST-2 cells expressing HLA-A31 antigen as target cells; assay: CTL assay using a TNF-releasing method (Wehi164/MTT); assay type: cell-based, human; conditions: peptide final concentration 10 μM, 1 μM or 0.1 μM; HST-2 target cells; target cells to CTL 1:100; 12 hours
Experimental: That is, in the TNF-releasing method, the HLA-A31-positive HST-2 or KG-1 cell is mixed with the peptide of the present invention, and the mixture is incubated at 37° C. for 3 hours. Then, Tc-HST-2 cells are added thereto, and the resulting mixture is further incubated for 12 hours. The activity of any TNF released in the supernatant is measured to detect the CTL inducibility.
The TNF activity can be measured by the method described in Immunogenetics, vol. 35, p. 145 (1992).
That is, TNF-sensitive Wehi164 cells are mixed with a test sample, and the mixture is incubated for 24 hours. Then, an MTT [3-(4,5-dimethylthiazol-2-yl)-2,5-diphenyl tetrazolium bromide] solution is added to the culture, and the resulting mixture is further incubated for 3 hours. After any formazan converted within mitochondria is dissolved in acid propanol, the amount thereof is measured in terms of an absorbance at OD570 to detect the TNF activity.
That is, 1×10^4 HST-2 cells expressing HLA-A31 antigen were suspended as target cells in 100 μl of the solution, and 5 μl of each of the above-mentioned four synthetic peptides were added thereto such that the final concentration reached 10 μM, 1 μM or 0.1 μM. The mixture was further incubated under the same conditions for 3 hours to bind the HLA-bound peptide to the HLA molecule. Subsequently, Tc-HST-2 cells (1×10^6 cells/ml) were added thereto in an amount of 100 μl, and the resulting mixture was further incubated for 12 hours under the same conditions.
After 12 hours of incubation, 30 μl of the supernatant formed was collected, and the TNF activity released in the supernatant was measured to detect the CTL inducibility. The TNF activity was measured by the following method.
That is, 7×10^4 Wehi164 cells which are TNF-sensitive cells were suspended in 120 μl of the solution, and 30 μl of the above-obtained supernatant were added thereto. The mixture was incubated for 24 hours. […] Then, the absorbance was measured at a wavelength of 570 nm to measure the TNF activity.

[2] = tested on: Tc-HST-2 cells with HST-2 or KG-1 cells expressing HLA-A31 antigen as target cells; assay: CTL inducibility by the 51Cr-releasing method (specific cytotoxicity of Tc-HST-2); assay type: cell-based, human; conditions: HLA-bound peptide from HST-2 separated by reversed-phase HPLC; target cells to CTL 1:100; 12 hours incubation
Experimental: That is, HLA-A31-positive HST-2 or KG-1 cells are radio-labeled with sodium chromate containing ^51Cr, and are then mixed with the HLA-bound peptide separated through reversed phase chromatography. The mixture is incubated at 37° C. for 3 hours, and Tc-HST-2 is then added thereto. The resulting mixture is further incubated for 12 hours. The CTL inducibility can be detected by measuring the radio-activity of ^51Cr released in the supernatant.
The CTL inducibility of the HPLC elution fractions against Tc-HST-2 cells was measured as follows. […]
Subsequently, Tc-HST-2 cells (2.5×10^5 cells/ml) were added thereto in an amount of 100 μl, and the mixture was incubated under the same conditions for 12 hours. After 12 hours of incubation, 100 μl of the supernatant formed were collected, and the radioactivity of ^51Cr released in this supernatant was measured using a γ-counter to measure the CTL activity.
The specific cytotoxicity was calculated using the following formula. […]
wherein the minimum release value indicates a measured value of a well filled with target cells alone and a value of ^51Cr naturally released from target cells, and the maximum release value indicates a release value when the cells are destroyed by adding a surfactant, 1% Triton x-100, to target cells.

Row | Substance | CTL inducibility of Tc-HST-2 (TNF activity released in the supernatant) [1] | CTL inducibility of Tc-HST-2 (specific cytotoxicity, 51Cr release) [2]
1 | Peptide 1-7: peptide containing 7 amino acids starting from the N-terminus of Synthetic Peptide 1 (SEQ ID NO: 4) (YSWMDIS) | no CTL inducibility | –
2 | YSWMDISC [Peptide 1-8] | no CTL inducibility | –
3 | YSWMDISCW [Peptide 1-9] | CTL inducibility of TC-HST-2 was identified | –
4 | YSWMDISCWI [Peptide 1, Tyr Ser Trp Met Asp Ile Ser cys Trp Ile] | – | exhibiting the CTL inducibility
